Measurements: PMC10161675, “Study on the absolute configuration and biological activity of rotenoids from the leaves and twigs of Millettia pyrrhocarpa Mattapha, Forest & Hawkins, sp. Nov” (BMC Complementary Medicine and Therapies, 2023)
In brackets after ≈: the same amount, converted by molar mass.

Experiments:
[1] = system: E. coli O157: H7 DMST 12743; assay: Antibacterial activity (MIC/MBC); type: cell-based; conditions: Escherichia coli; for MBC: read-out: Concentration of MBC; for MIC: read-out: Concentration of MIC
Experimental: (§1) The study on in vitro antibacterial activity was carried out against nine strains (S. aureus ATCC 25923 DMST 8840, E. aerogenes ATCC13048 DMST 8841, E. coli O157: H7 DMST 12743, E. coli Enterotoxigenic, ETEC DMST 30543, E. coli Enteropathogenic, EPEC DMST 30546, S. typhimurium ATCC 13311 DMST 562, S. flexneri DMST 4423, P. mirabilis DMST 8212, and V. cholera nonO1/nonO139 DMST 2873).

[2] = system: V. cholera nonO1/nonO139 DMST 2873; assay: Antibacterial activity (MIC/MBC); type: cell-based, V. cholerae; conditions: Vibrio cholerae; for MBC: read-out: Concentration of MBC; for MIC: read-out: Concentration of MIC
Experimental: as §1

HIV-1 RT = target: T1, HIV-1 RT (Human immunodeficiency virus type 1 group M subtype B, UniProt P04585); assay: Anti-HIV1-RT assay; type: biochemical; conditions: read-out: Anti-HIV-1 RT (% Inhibition)
T1 construct: For determination of IC50 in the HIV-1 RT assay
Experimental: (§2) Anti-HIV1-RT assays of the crude extracts and isolated compounds were evaluated according to the standard methods described in previous literature. Cell-based assays for anti-HIV-1 RT of the crude extracts and isolated compounds were evaluated according to the standard methods described in previous literature

[3] = system: ΔTat/RevMC99 virus in 1A2 cells; assay: Anti-syncytium (MC99 + 1A2) cell-based assay for anti-HIV-1; conditions: Human immunodeficiency virus 1, 1A2, read-out: Anti-syncytium (MC99+1A2) EC50
Experimental: as §2
Fig. 4 Anti-syncytium MC99 + 1A2 of crude extracts and pure compounds from leaves and twigs of M. Pyrrhocarpa. ^bAnti-syncytium (MC99 + 1A2) EC50 = dose of compound that reduced 50% syncytium formation by ΔTat/RevMC99 virus in 1A2 cells.

[4] = system: E. aerogenes ATCC13048 DMST 8841; assay: microbe, parasite or virus in culture; type: cell-based; conditions: Klebsiella aerogenes; for MBC: read-out: Concentration of MBC; for MIC: read-out: Concentration of MIC
Experimental: as §1

[5] = system: S. typhimurium ATCC 13311 DMST 562; assay: microbe, parasite or virus in culture; type: cell-based; conditions: Salmonella enterica; for MBC: read-out: Concentration of MBC; for MIC: read-out: Concentration of MIC
Experimental: as §1

[6] = system: E. coli Enterotoxigenic, ETEC DMST 30543; assay: microbe, parasite or virus in culture; type: cell-based; conditions: Escherichia coli; for MBC: read-out: Concentration of MBC
Experimental: as §1

[7] = system: E. coli Enteropathogenic, EPEC DMST 30546; assay: microbe, parasite or virus in culture; type: cell-based; conditions: Escherichia coli; for MBC: read-out: Concentration of MBC
Experimental: as §1

[8] = system: S. aureus ATCC 25923 DMST 8840; assay: microbe, parasite or virus in culture; type: cell-based; conditions: Staphylococcus aureus; for MBC: ATCC25923, read-out: Concentration of MBC; for MIC: ATCC25923, read-out: Concentration of MIC
Experimental: as §1

P. mirabilis DMST 8212 = assay: microbe, parasite or virus in culture; type: cell-based; conditions: Proteus mirabilis; for MBC: DMST8212, read-out: Concentration of MBC; for MIC: DMST8212, read-out: Concentration of MIC
Experimental: as §1

S. flexneri DMST 4423 = assay: microbe, parasite or virus in culture; type: cell-based; conditions: Shigella flexneri; for MBC: DMST4423, read-out: Concentration of MBC; for MIC: DMST4423, read-out: Concentration of MIC
Experimental: as §1

[9] = system: A 549 (Human lung adenocarcinoma); assay: Cytotoxicity assay; type: cell-based; conditions: A549
Excerpt: (§3) Cells line materials KKU-M213 (human cholangiocarcinoma) cells were kindly provided by Dr. Banchob Sripa from Liver Fluke and Cholangiocarcinoma Research Center, Department of Pathology, Faculty of Medicine, Khon Kean University. MMNK1 (human cholangiocyte) cells were obtained from the Japanese Collection of Research Bioresources Cell Bank (JCRB, Osaka, Japan). FaDu (human hypopharyngeal carcinoma), HT29 (human colorectal adenocarcinoma), MDA-MB-231 (human mammary gland/breast adenocarcinoma), SH-SY5Y (human neuroblastoma), A549 (human lung carcinoma), and HepG2 (human hepatocellular carcinoma) cell lines were obtained from the American Type Culture Collection (ATCC, Manassas, VA, USA).
(§4) Cytotoxicity assays of the crude extracts and isolated compounds were evaluated according to the standard methods described in previous literature.

[10] = system: Hep G2 (Human hepatocellular carcinoma); assay: Cytotoxicity assay; type: cell-based; conditions: listed as 6aS, 12aS, 12S-elliptinol (1)
Excerpt: as §3, §4

SMILES | MBC [1] [µg/mL] | MIC [1] [µg/mL] | melting point [°C] | MBC [2] [µg/mL] | MIC [2] [µg/mL] | inhibition at 200 µg/mL (HIV-1 RT) [%] | EC50 [3] [µM] | MBC [4] [µg/mL] | MIC [4] [µg/mL] | MBC [5] [µg/mL] | MIC [5] [µg/mL] | MBC [6] [µg/mL] | MBC [7] [µg/mL] | MBC [8] [µg/mL] | MIC [8] [µg/mL] | MBC (P. mirabilis DMST 8212) [µg/mL] | MIC (P. mirabilis DMST 8212) [µg/mL] | MBC (S. flexneri DMST 4423) [µg/mL] | MIC (S. flexneri DMST 4423) [µg/mL] | further results
COc1ccc2c(c1)O[C@@H]1COc3cc(OC)c(OC)cc3[C@H]1[C@@H]2O [Compound 2, 6aS, 12aS, 12S-munduserol] | > 3000 | 3000 (≈ 8.71 mM) | 240 to 241 | > 3000 | 3000 (≈ 8.71 mM) | 8.98 | 4.99 | > 3000 | 3000 (≈ 8.71 mM) | > 3000 | 3000 (≈ 8.71 mM) | > 3000 | > 3000 | > 3000 | 3000 (≈ 8.71 mM) | > 3000 | 3000 (≈ 8.71 mM) | > 3000 | 3000 (≈ 8.71 mM) | –
COc1ccc2c(=O)c3c(oc2c1)COc1cc(OC)c(OC)cc1-3 [Compound 3, dehydromunduserone] | > 3000 | 3000 (≈ 8.81 mM) | 202 to 204 | > 3000 | 3000 (≈ 8.81 mM) | 0 | 91 | > 3000 | 3000 (≈ 8.81 mM) | > 3000 | 3000 (≈ 8.81 mM) | > 3000 | > 3000 | > 3000 | 3000 (≈ 8.81 mM) | > 3000 | 3000 (≈ 8.81 mM) | > 3000 | 3000 (≈ 8.81 mM) | –
O=C(N[C@H](CO)[C@H](O)c1ccc([N+](=O)[O-])cc1)C(Cl)Cl [Chloramphenicol, reference compound] | 125 (≈ 0.387 mM) | < 30 | – | 125 (≈ 0.387 mM) | < 30 | – | – | 125 (≈ 0.387 mM) | < 30 | 125 (≈ 0.387 mM) | < 35 | – | – | 125 (≈ 0.387 mM) | < 30 | 31.2 (≈ 0.0966 mM) | < 30 | 125 (≈ 0.387 mM) | < 30 | MIC ([6]; read-out: Concentration of MIC): < 30 µg/mL; MIC ([7]; read-out: Concentration of MIC): < 30 µg/mL
COc1cc2c(cc1OC)[C@H]1[C@H](O)c3ccc4occc4c3O[C@@H]1CO2 [Compound 1, 6aS, 12aS, 12S-elliptinol] | > 3000 | 3000 (≈ 8.47 mM) | – | > 3000 | 3000 (≈ 8.47 mM) | 0.03 | 4.48 | > 3000 | 3000 (≈ 8.47 mM) | > 3000 | 3000 (≈ 8.47 mM) | > 3000 | > 3000 | > 3000 | 3000 (≈ 8.47 mM) | > 3000 | 3000 (≈ 8.47 mM) | > 3000 | 3000 (≈ 8.47 mM) | cytotoxicity ED50 [9]: 2.27 µg/mL; cytotoxicity ED50 [10]: 3.97 µg/mL
